Entries after “also recorded” stand apart in the source; their conditions may differ.
Assays:
Format in all cases: cell-based
[1] = system: OAW28; experiment: Senescence quantification (SA-βGal); conditions: OAW28, loss of Rb expression
Experimental: (§1) Day 1: 96 well plate was seeded with 4000 cells/well and incubated for 24 hours at 37° C.
(§2) Day 2: Compound 42 (50, 100, or 150 nM) or palbociclib (1 μM) as positive control were added to the wells and the plate was incubated for 96 hours at 37° C.
(§3) Day 6: Senescence cells histochemical Staining Kit (Sigma) was used. The growth medium form the cells were aspirated then washed twice with fresh […]. […] 100 μL filtered Fixation Buffer was added per well and the plate was incubated for 6-7 minutes at room temperature. Then, the cells were rinsed 3 times with PBS. 50 μL of the Staining Mixture was added per well and incubated at 37° C. overnight without CO2 (staining is pH dependent). After staining, the Staining Mixture was removed, PBS and Hoechst dye (1 μg/mL) were added. Ten images were taken with Epifluorescence Microscope using the blue filter and 10 images were taken in the brightfield. The images were used to count the total cell number—the positive blue cells were counted in the bright field. The percentage of cells expressing β-galactosidase was calculated.
Method 1: Mammalian β-Galactosidase Assay Kit (Thermo Scientific) was used. […] The cells were washed once with PBS. […] The absorbance was measured at 405 nm. […]
Method 2: Assay of a portion of the lysate. […] 25 μL of lysate was removed and use it for Protein Quantification (BCA). […]

[2] = system: cyclin E; experiment: Western blot of cellular biomarker cyclin E; conditions: JEKO-1; 500 nM Compound 42; 48 hours; compared to palbociclib 1 μM
Experimental: (§4) Various cancer cells lines were treated with Compound 42 or palbociclib (control) to measure the expression of cyclin D, cyclin E, pRb, and Rb.
(§5) Day 1: 6 well plate was seeded with 3×10^5 cells/well with a final volume of 3 mL and incubated for 24 hours at 37° C.
(§6) Day 2: The media was removed and Compound 42 (see below for dose) or palbociclib (1 μM) as positive control were added to the wells the desired concentration in cell culture media, giving a final volume of 3 mL per well. The plate was incubated for 24 hours at 37° C. (or desired period).
Day 3: The media was removed from wells and washed ×3 with PBS. 500 μl of trypsin was added to the wells and incubate until cells detach. 500 μl media was added to neutralise trypsin, transferred to 2 ml Eppendorfs, and centrifuged (1500 RPM for 5 minutes). While spinning, the wells were washed with 1 mL PBS to collect any remaining cells. This wash was used to centrifuged cell pellet. After the first spin, the supernatant was discarded and the pellet was washed with PBS collected from the previous step. […] The protein concentration was determined using the BCA assay kit.
Day 4: Western blot analysis was performed. […] The membrane was blocked using 5% non-fat powdered milk* made up in 1×TBS containing 0.1% Tween (TBS-T and incubated for 1 hr with gentle rocking. The observation from the Western blot analysis is quantified in FIGS. 2-7D. […]

[3] = system: Cyclin D; experiment: Mechanistic study: Cyclin D western blot with or without epoxomicin; conditions: ES-2, 18 hours
Experimental: In order to establish that the decrease in Cyclin D seen after Compound 42 treatment is due to proteasomal degradation, ES-2, ovarian cancer cell line was treated with Compound 42 (250 nM) in the presence or absence of epoxomicin, a specific inhibitor of the proteasome (60 nM) for 18 hours. Following the treatment, western blotting for Cyclin D (FIG. 10A), Ub (FK-2) (FIG. 10B), and GAPDH control (bottom blot, below FIGS. 10A and 10B) was performed. Epoxomicin is a specific inhibitor of the proteasome.

[4] = system: Cyclin D; experiment: Western blot of cellular biomarker cyclin D
Experimental: as §4, §5, §6
(§7) Day 3: The media was removed from wells and washed ×3 with PBS. 500 μl of trypsin was added to the wells and incubate until cells detach. 500 μl media was added to neutralise trypsin, transferred to 2 ml Eppendorfs, and centrifuged (1500 RPM for 5 minutes). While spinning, the wells were washed with 1 mL PBS to collect any remaining cells. This wash was used to centrifuged cell pellet. After the first spin, the supernatant was discarded and the pellet was washed with PBS collected from the previous step. The centrifugation step was repeated and the supernatant was discarded and the pellet wash again with fresh PBS. The centrifugation and wash with PBS was repeated one more time. RIPA cell lysate buffer was prepared and Protease Inhibitor Cocktail was included. The supernatant was discarded and […] RIPA cell lysate buffer was added to the pellet. The protein concentration was determined using the BCA assay kit.
(§8) Day 4: Western blot analysis was performed. 4-12% Bis-Tris gel and MOPS running buffer was used. The running buffer was made to sufficient volume of running buffer to 1× concentration. 20 μg protein (v/v loading & reducing buffer) of each sample was loaded into wells. Some proteins may require more, or less, protein loaded. The gel was ran at standard settings 200 V for 45 minutes. Once gel has run, the gel was transferred for 7 minutes using the iBlot Blotting System. The membrane was blocked using 5% non-fat powdered milk* made up in 1×TBS containing 0.1% Tween (TBS-T and incubated for 1 hr with gentle rocking. The observation from the Western blot analysis is quantified in FIGS. 2-7D.
Cell line JEKO-1 (mantle cell line with cyclin D chromosome translocation, amplification of cyclin D) was treated with DMSO (control), 500 nM of Compound 42, or 1 μM of Palbociclib. Treated cells were incubated for 48 hours and data represented in FIGS. 6A-6C represents n=1.

[5] = system: ES-2; experiment: Senescence quantification (SA-βGal); conditions: Compound 42 50, 100, or 150 nM, 96 hours, compared to control (DMSO)
Experimental: (§9) Senescence was quantified in ovarian cell lines A2780, OAW42, and ES-2. Cell lines A2780 has no cyclin D pathway mutations and has wt Rb and Parkin expression. Cell line OAW42 has increased CDK4 and increased CDK6 with wt Rb and Parkin expression. Cell line ES-2 has increased cyclin D and increased mutant […] with wt Rb and Parkin expression.
as §1, §2, §3
(§10) Method 1: Mammalian β-Galactosidase Assay Kit (Thermo Scientific) was used. […] The cells were washed once with PBS. 100 μL of the β-Galactosidase Assay Reagent was added to each well and the plate was covered and incubated for 30 minutes at 37° C. without CO2. The absorbance was measured at 405 nm. If no change was observed, the plate was incubated for an extra 30 minutes.
(§11) Method 2: Assay of a portion of the lysate. The cells were washed once with PBS. 50 μL of the M-PER Reagent was added to each well and the plate was incubated at room temperature for […]. 25 μL of lysate was removed and use it for Protein Quantification (BCA). The date was normalize by protein content.

[6] = system: A2780; experiment: Senescence quantification (SA-βGal); conditions: Compound 42 50, 100, or 150 nM, 96 hours, compared to control (DMSO)
Experimental: as §9, §1, §2, §3, §10, §11

[7] = system: OAW42; experiment: Senescence quantification (SA-βGal); conditions: Compound 42 50, 100, or 150 nM, 96 hours, compared to control (DMSO)
Experimental: as §9, §1, §2, §3, §10, §11

[8] = system: cyclin D1; experiment: Western blot of cellular biomarker cyclin D1
Experimental: as §4, §5, §6, §7, §8
Cell lines A2780 (ovarian cell line with no cyclin D pathway mutations), ES-2 (ovarian cell line with cyclin D amplification, p53 mutation), OAW42, and SW626 were treated with DMSO (control), 250 nM of Compound 42, or 1 μM of Palbociclib. Treated cells were incubated for 24 hours and data represented in FIGS. 2-5 represents n=3.

[9] = system: cyclin E1; experiment: Western blot of cellular biomarker cyclin E1; conditions: 250 nM Compound 42, 24 hours, compared to palbociclib 1 μM
Experimental: as §4, §5, §6, §7
as §8, with “Once gel has run, the gel was transferred for 7 minutes using the iBlot Blotting System.” left out, “2-7D. […]” for “2-7D.”

[10] = HT116, with increasing concentration

## Cc1ccccc1C(=O)Nc1nc(NC(=O)c2ccccc2C)n(-c2ccc(OC(F)(F)F)cc2)n1 [Compound 42, N,N′-(1-(4-(trifluoromethoxy)phenyl)-1H-1,2,4-triazole-3,5-diyl)bis(2-methylbenzamide)]
[1]
  cell senescence: not observed; also recorded: no senescence; also recorded: += weak senescence due to loss of RB
[2]
  cyclin E expression: reduction of cyclin E and cyclin D expression
[3]; Compound 42 250 nM alone
  cyclin D levels: induced cyclin D levels to decrease
[3]; Compound 42 250 nM alone, listed as compound 42
  cyclin D levels: decreases cyclin D levels
[3]; Compound 42 250 nM in the presence of epoxomicin 60 nM
  cyclin D levels: returned cyclin D levels to normal (or slightly above)
[3]; Compound 42 250 nM in the presence of epoxomicin 60 nM, listed as compound 42
  cyclin D levels: counterbalanced by adding epoxomicin
[4]; HCT-116 (p16 mutation), Compound 42 250 nM, Palbociclib 1 μM
  normalization of cyclin D: normalized cyclic D
[4]; [10]
  cyclin D expression: reduction
[4]; JEKO-1, 500 nM Compound 42, 48 hours, compared to palbociclib 1 μM
  cyclin D expression: reduction of cyclin E and cyclin D expression
[4]; OAW28
  cyclin D expression: decreased
[5]
  senescence (SA-βGal levels): induced senescence
[6]
  senescence (SA-βGal levels): induced senescence
[7]
  senescence (SA-βGal levels): induced senescence
[8]; A2780, 250 nM Compound 42, 1 μM Palbociclib, 24 hours
  Cyclin D1 expression: reduction of cyclin D1 expressions
[8]; ES-2, 250 nM Compound 42, 1 μM Palbociclib, 24 hours
  Cyclin D1 expression: reduction of cyclin D1 expressions
[8]; [10]
  Cyclin D1 expression: reduction
[8]; OAW42, 250 nM Compound 42, 1 μM Palbociclib, 24 hours
  Cyclin D1 expression: reduction of cyclin D1 expressions
[8]; SW626, 250 nM Compound 42, 1 μM Palbociclib, 24 hours
  Cyclin D1 expression: reduction of cyclin D1 expressions
[9]; A2780
  cyclin E1 expression: reduction of cyclin E1 expressions
[9]; ES-2
  cyclin E1 expression: reduction of cyclin E1 expressions
[9]; OAW42
  cyclin E1 expression: some reduction of cyclin E1 expression

Reference: patent US20210244712A1, “METHODS FOR TREATING PATIENTS WITH CANCER HAVING DEFECTS IN CYCLIN D REGULATION” (NysnoBio Ireland DAC, priority 2018, published 2021)
